Assay results taken from PubChem BioAssay (NCI).
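Results reflect a 48-hour exposure of cells in 96-well plates to compound at five concentrations. The concentration for full growth arrest is given as TGI.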

Key:
Test in all cases: NCI anticancer screen, dose series, 48 h
[1] = tested on: CCRF-CEM leukemia
[2] = tested on: HL-60(TB) leukemia
[3] = tested on: EKVX NSCLC
[4] = tested on: HCT-15 colon
[5] = tested on: U251 CNS
[6] = tested on: PC-3 prostate
[7] = tested on: HCC-2998 colon
[8] = tested on: RXF 393 renal
[9] = tested on: MDA-MB-435
[10] = tested on: RPMI-8226 leukemia
[11] = tested on: DU-145 prostate
[12] = tested on: SR leukemia
[13] = tested on: UACC-62 melanoma
[14] = tested on: HT29 colon
[15] = tested on: T-47D breast
[16] = tested on: OVCAR-5 ovarian
[17] = tested on: IGROV1 ovarian
[18] = tested on: CAKI-1 renal
[19] = tested on: NCI-H226 lung
[20] = tested on: HOP-92 NSCLC
[21] = tested on: SF-268 CNS
[22] = tested on: LOX IMVI melanoma
[23] = tested on: A498 renal
[24] = tested on: NCI-H522 lung
[25] = tested on: K-562 leukemia
[26] = tested on: COLO 205 colon
[27] = tested on: A549 NSCLC
[28] = tested on: SK-OV-3 ovarian
[29] = tested on: SF-295 CNS
[30] = tested on: SW-620 colon
[31] = tested on: MCF7 breast
[32] = tested on: OVCAR-8 ovarian
[33] = tested on: MDA-N
[34] = tested on: TK-10 renal
[35] = tested on: NCI-H460 lung
[36] = tested on: NCI/ADR-RES ovarian
[37] = tested on: MOLT-4 leukemia
[38] = tested on: M14 melanoma
[39] = tested on: UO-31 renal
[40] = tested on: SNB-75 CNS
[41] = tested on: HOP-62 NSCLC
[42] = tested on: SN12C renal
[43] = tested on: UACC-257 melanoma
[44] = tested on: HCT-116 colon
[45] = tested on: KM12 colon
[46] = tested on: NCI-H23 lung
[47] = tested on: MALME-3M melanoma
[48] = tested on: SNB-19 CNS
[49] = tested on: ACHN renal
[50] = tested on: BT-549 breast
[51] = tested on: SK-MEL-2 melanoma
[52] = tested on: OVCAR-4 ovarian
[53] = tested on: MDA-MB-231 breast
[54] = tested on: SK-MEL-5 melanoma
[55] = tested on: SF-539 CNS
[56] = tested on: HS 578T breast
[57] = tested on: OVCAR-3 ovarian
[58] = tested on: 786-0 renal
[59] = tested on: SK-MEL-28 melanoma

## CNC1C(=O)C(C)C(O)(C(CC(C)C(O)/C=C/C=C/CNC(=O)C(C)(C)C(O)\C(C)=C/C=C\C=C\Cc2cnc(C)o2)OC)C12C(=O)OC2COC (stereo not drawn) (tested in a mixture with another compound)
[1]
  TGI: 38.5 µM
[2]
  TGI: 3.48 µM
[3]
  TGI: > 64.4 µM
[4]
  TGI: > 63.1 µM
[5]
  TGI: > 52.2 µM
[6]
  TGI: 63.5 µM
[7]
  TGI: 41.7 µM
[8]
  TGI: 92.3 µM
[9]
  TGI: > 100 µM
[10]
  TGI: 42.4 µM
[11]
  TGI: > 100 µM
[12]
  TGI: 48.1 µM
[13]
  TGI: 49.9 µM
[14]
  TGI: 20.7 µM
[15]
  TGI: > 93.3 µM
[16]
  TGI: > 70.2 µM
[17]
  TGI: > 26.2 µM
[18]
  TGI: > 100 µM
[19]
  TGI: 4.92 µM
[20]
  TGI: > 51.3 µM
[21]
  TGI: 42.9 µM
[22]
  TGI: 31.5 µM
[23]
  TGI: > 79.3 µM
[24]
  TGI: 21.2 µM
[25]
  TGI: 5.42 µM
[26]
  TGI: 20.2 µM
[27]
  TGI: > 100 µM
[28]
  TGI: > 100 µM
[29]
  TGI: > 53.3 µM
[30]
  TGI: > 46.9 µM
[31]
  TGI: > 84.9 µM
[32]
  TGI: > 100 µM
[33]
  TGI: 71.4 µM
[34]
  TGI: > 100 µM
[35]
  TGI: > 100 µM
[36]
  TGI: > 100 µM
[37]
  TGI: 35.8 µM
[38]
  TGI: 27 µM
[39]
  TGI: 67.3 µM
[40]
  TGI: 30.6 µM
[41]
  TGI: 24.1 µM
[42]
  TGI: > 82.7 µM
[43]
  TGI: > 100 µM
[44]
  TGI: > 49.9 µM
[45]
  TGI: 26.1 µM
[46]
  TGI: > 60.7 µM
[47]
  TGI: > 87.9 µM
[48]
  TGI: > 85.9 µM
[49]
  TGI: > 43.2 µM
[50]
  TGI: > 100 µM
[51]
  TGI: > 71.7 µM
[52]
  TGI: > 100 µM
[53]
  TGI: > 63.3 µM
[54]
  TGI: 18.4 µM
[55]
  TGI: 67 µM
[56]
  TGI: > 100 µM
[57]
  TGI: 34.6 µM
[58]
  TGI: 73.7 µM
[59]
  TGI: > 100 µM

## COC1(OC)C2(Cl)CCC1(Cl)C(OC(C)=O)C2 (stereo not drawn)
[1]
  TGI: > 100 µM
[3]
  TGI: > 100 µM
[4]
  TGI: > 100 µM
[5]
  TGI: > 100 µM
[6]
  TGI: > 100 µM
[7]
  TGI: > 100 µM
[8]
  TGI: > 100 µM
[9]
  TGI: > 100 µM
[10]
  TGI: > 100 µM
[11]
  TGI: > 100 µM
[12]
  TGI: > 100 µM
[13]
  TGI: > 100 µM
[14]
  TGI: > 100 µM
[15]
  TGI: > 100 µM
[16]
  TGI: > 100 µM
[17]
  TGI: > 100 µM
[18]
  TGI: > 100 µM
[19]
  TGI: > 100 µM
[20]
  TGI: > 100 µM
[21]
  TGI: > 100 µM
[22]
  TGI: > 100 µM
[23]
  TGI: > 100 µM
[24]
  TGI: > 100 µM
[25]
  TGI: > 100 µM
[26]
  TGI: > 100 µM
[27]
  TGI: > 100 µM
[28]
  TGI: > 100 µM
[29]
  TGI: > 100 µM
[30]
  TGI: > 100 µM
[31]
  TGI: > 100 µM
[32]
  TGI: > 100 µM
[33]
  TGI: > 100 µM
[34]
  TGI: > 100 µM
[35]
  TGI: > 100 µM
[36]
  TGI: > 100 µM
[37]
  TGI: > 100 µM
[38]
  TGI: > 100 µM
[39]
  TGI: > 100 µM
[40]
  TGI: > 100 µM
[41]
  TGI: > 100 µM
[42]
  TGI: > 100 µM
[43]
  TGI: > 100 µM
[44]
  TGI: > 100 µM
[45]
  TGI: > 100 µM
[46]
  TGI: > 100 µM
[47]
  TGI: > 100 µM
[48]
  TGI: > 100 µM
[49]
  TGI: > 100 µM
[50]
  TGI: > 100 µM
[51]
  TGI: > 100 µM
[52]
  TGI: > 100 µM
[53]
  TGI: > 100 µM
[54]
  TGI: > 100 µM
[55]
  TGI: > 100 µM
[56]
  TGI: > 100 µM
[57]
  TGI: > 100 µM
[58]
  TGI: > 100 µM
[59]
  TGI: > 100 µM

## COC(=O)C1(c2ccc(N(C)C)cc2OC)CCCN(C(=O)Oc2ccccc2[N+](=O)[O-])CCc2c1[nH]c1ccccc21 (stereo not drawn)
[2]
  TGI: > 100 µM
[3]
  TGI: > 100 µM
[5]
  TGI: > 100 µM
[6]
  TGI: > 100 µM
[7]
  TGI: > 100 µM
[8]
  TGI: > 100 µM
[9]
  TGI: > 100 µM
[11]
  TGI: > 100 µM
[12]
  TGI: > 100 µM
[13]
  TGI: > 100 µM
[14]
  TGI: > 100 µM
[15]
  TGI: > 100 µM
[16]
  TGI: > 100 µM
[17]
  TGI: > 100 µM
[18]
  TGI: > 100 µM
[19]
  TGI: > 100 µM
[20]
  TGI: > 100 µM
[21]
  TGI: > 100 µM
[22]
  TGI: > 100 µM
[23]
  TGI: > 100 µM
[24]
  TGI: > 100 µM
[25]
  TGI: > 100 µM
[26]
  TGI: > 100 µM
[27]
  TGI: > 100 µM
[28]
  TGI: > 100 µM
[29]
  TGI: > 100 µM
[30]
  TGI: > 100 µM
[31]
  TGI: > 100 µM
[32]
  TGI: > 100 µM
[33]
  TGI: > 100 µM
[34]
  TGI: > 100 µM
[35]
  TGI: > 100 µM
[36]
  TGI: > 100 µM
[37]
  TGI: > 100 µM
[38]
  TGI: > 100 µM
[39]
  TGI: > 100 µM
[40]
  TGI: > 100 µM
[41]
  TGI: > 100 µM
[42]
  TGI: > 100 µM
[43]
  TGI: > 100 µM
[44]
  TGI: > 100 µM
[45]
  TGI: > 100 µM
[46]
  TGI: > 100 µM
[47]
  TGI: > 100 µM
[50]
  TGI: > 100 µM
[51]
  TGI: > 100 µM
[53]
  TGI: > 100 µM
[54]
  TGI: > 100 µM
[55]
  TGI: > 100 µM
[56]
  TGI: > 100 µM
[57]
  TGI: > 100 µM
[59]
  TGI: > 100 µM

## CC(=O)c1cccc2c1CC1(C2)Cc2ccc3c(c2C1=O)CCC3 (stereo not drawn)
[1]
  TGI: > 100 µM
[2]
  TGI: 21.3 µM
[3]
  TGI: 83.3 µM
[4]
  TGI: > 100 µM
[5]
  TGI: > 100 µM
[6]
  TGI: > 100 µM
[7]
  TGI: 67.4 µM
[8]
  TGI: > 100 µM
[9]
  TGI: > 100 µM
[10]
  TGI: > 100 µM
[11]
  TGI: > 100 µM
[12]
  TGI: 73.1 µM
[13]
  TGI: > 100 µM
[14]
  TGI: > 100 µM
[15]
  TGI: > 100 µM
[16]
  TGI: > 100 µM
[17]
  TGI: > 100 µM
[18]
  TGI: > 100 µM
[19]
  TGI: > 100 µM
[20]
  TGI: 64.2 µM
[21]
  TGI: > 100 µM
[22]
  TGI: > 100 µM
[23]
  TGI: > 100 µM
[24]
  TGI: > 100 µM
[25]
  TGI: > 100 µM
[26]
  TGI: 92.4 µM
[27]
  TGI: > 100 µM
[28]
  TGI: > 100 µM
[29]
  TGI: > 100 µM
[30]
  TGI: > 100 µM
[31]
  TGI: 76.4 µM
[32]
  TGI: > 100 µM
[33]
  TGI: > 100 µM
[34]
  TGI: 77.6 µM
[35]
  TGI: > 100 µM
[36]
  TGI: 57.5 µM
[37]
  TGI: > 100 µM
[38]
  TGI: > 100 µM
[39]
  TGI: > 100 µM
[40]
  TGI: > 100 µM
[41]
  TGI: > 100 µM
[42]
  TGI: > 100 µM
[43]
  TGI: 43.9 µM
[44]
  TGI: > 100 µM
[45]
  TGI: > 100 µM
[46]
  TGI: > 100 µM
[47]
  TGI: > 100 µM
[48]
  TGI: > 100 µM
[49]
  TGI: > 100 µM
[50]
  TGI: > 100 µM
[51]
  TGI: > 100 µM
[52]
  TGI: > 100 µM
[53]
  TGI: > 100 µM
[54]
  TGI: 33.7 µM
[55]
  TGI: > 100 µM
[56]
  TGI: > 100 µM
[57]
  TGI: > 100 µM
[58]
  TGI: > 100 µM
[59]
  TGI: > 100 µM
